This note sets out measurements from BindingDB's records for patent US11547697 (Millennium Pharmaceuticals, 2023).

What is called IC50 is the midpoint of a concentration-inhibition curve. Higher therefore signals lower potency.

Some results are limits rather than exact numbers.

Assay [1] deals with T1, Phosphatidylinositol 4,5-bisphosphate 3-kinase catalytic subunit delta isoform (Homo sapiens, UniProt O00329).
T1 sequence (O00329 whole entry): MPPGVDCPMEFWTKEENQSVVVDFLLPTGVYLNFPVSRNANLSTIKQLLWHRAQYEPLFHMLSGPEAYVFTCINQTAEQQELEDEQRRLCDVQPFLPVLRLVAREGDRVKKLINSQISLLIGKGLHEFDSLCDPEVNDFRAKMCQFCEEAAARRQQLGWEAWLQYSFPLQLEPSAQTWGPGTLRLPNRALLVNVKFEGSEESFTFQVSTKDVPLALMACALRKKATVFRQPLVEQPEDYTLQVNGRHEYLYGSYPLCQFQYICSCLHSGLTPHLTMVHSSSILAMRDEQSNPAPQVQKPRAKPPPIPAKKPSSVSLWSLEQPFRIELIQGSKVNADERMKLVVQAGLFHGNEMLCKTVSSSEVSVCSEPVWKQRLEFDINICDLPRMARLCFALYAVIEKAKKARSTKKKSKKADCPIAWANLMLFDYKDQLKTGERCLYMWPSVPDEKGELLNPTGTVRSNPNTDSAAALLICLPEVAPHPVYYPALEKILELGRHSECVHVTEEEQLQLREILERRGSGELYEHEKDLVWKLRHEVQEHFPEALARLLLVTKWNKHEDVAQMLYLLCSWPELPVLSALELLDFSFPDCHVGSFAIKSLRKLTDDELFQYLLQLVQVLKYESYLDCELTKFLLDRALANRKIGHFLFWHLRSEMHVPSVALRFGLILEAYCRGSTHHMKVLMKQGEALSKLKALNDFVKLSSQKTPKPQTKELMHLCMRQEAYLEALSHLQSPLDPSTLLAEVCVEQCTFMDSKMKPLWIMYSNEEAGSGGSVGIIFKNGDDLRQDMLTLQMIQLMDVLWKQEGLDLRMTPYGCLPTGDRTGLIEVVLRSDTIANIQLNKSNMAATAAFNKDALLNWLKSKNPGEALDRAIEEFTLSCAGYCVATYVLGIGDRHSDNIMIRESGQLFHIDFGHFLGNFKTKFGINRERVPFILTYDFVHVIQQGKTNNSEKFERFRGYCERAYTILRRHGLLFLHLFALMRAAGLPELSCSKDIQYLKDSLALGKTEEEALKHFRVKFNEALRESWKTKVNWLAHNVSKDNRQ
The assay is described as follows: Inhibition Assay of PI3K.
Method: (§1) An exemplary system is PI 3-Kinase (human) HTRF Assay from Upstate. […] Briefly, the assay is a time resolved FRET assay that indirectly measures PIP3 product formed by the activity of a PI3-K. The kinase reaction is performed in a microtitre plate (e.g., a 384 well microtitre plate). The total reaction volume is approximately 20 ul per well. In the first step, each well receives 2 ul of test compound in 20% dimethylsulphoxide resulting in a 2% DMSO final concentration. Next, approximately 14.5 ul of a kinase/PIP2 mixture (diluted in 1× reaction buffer) is added per well for a final concentration of 0.25-0.3 ug/ml kinase and 10 μM PIP2. The plate is sealed and incubated for 15 minutes at room temperature. To start the reaction, 3.5 ul of ATP (diluted in 1× reaction buffer) is added per well for a final concentration of 10 μM ATP. The plate is sealed and incubated for 1 hour at room temperature. The reaction is stopped by adding 5 ul of Stop Solution per well and then 5 ul of Detection Mix is added per well. The plate is sealed, incubated for 1 hour at room temperature, and then read on an appropriate plate reader.

For assay [2], the target named is Phosphatidylinositol 4,5-bisphosphate 3-kinase catalytic subunit beta isoform (Homo sapiens, UniProt P42338). Briefly: Inhibition Assay of PI3K.
Chain of Phosphatidylinositol 4,5-bisphosphate 3-kinase catalytic subunit beta isoform (P42338 whole entry, canonical isoform): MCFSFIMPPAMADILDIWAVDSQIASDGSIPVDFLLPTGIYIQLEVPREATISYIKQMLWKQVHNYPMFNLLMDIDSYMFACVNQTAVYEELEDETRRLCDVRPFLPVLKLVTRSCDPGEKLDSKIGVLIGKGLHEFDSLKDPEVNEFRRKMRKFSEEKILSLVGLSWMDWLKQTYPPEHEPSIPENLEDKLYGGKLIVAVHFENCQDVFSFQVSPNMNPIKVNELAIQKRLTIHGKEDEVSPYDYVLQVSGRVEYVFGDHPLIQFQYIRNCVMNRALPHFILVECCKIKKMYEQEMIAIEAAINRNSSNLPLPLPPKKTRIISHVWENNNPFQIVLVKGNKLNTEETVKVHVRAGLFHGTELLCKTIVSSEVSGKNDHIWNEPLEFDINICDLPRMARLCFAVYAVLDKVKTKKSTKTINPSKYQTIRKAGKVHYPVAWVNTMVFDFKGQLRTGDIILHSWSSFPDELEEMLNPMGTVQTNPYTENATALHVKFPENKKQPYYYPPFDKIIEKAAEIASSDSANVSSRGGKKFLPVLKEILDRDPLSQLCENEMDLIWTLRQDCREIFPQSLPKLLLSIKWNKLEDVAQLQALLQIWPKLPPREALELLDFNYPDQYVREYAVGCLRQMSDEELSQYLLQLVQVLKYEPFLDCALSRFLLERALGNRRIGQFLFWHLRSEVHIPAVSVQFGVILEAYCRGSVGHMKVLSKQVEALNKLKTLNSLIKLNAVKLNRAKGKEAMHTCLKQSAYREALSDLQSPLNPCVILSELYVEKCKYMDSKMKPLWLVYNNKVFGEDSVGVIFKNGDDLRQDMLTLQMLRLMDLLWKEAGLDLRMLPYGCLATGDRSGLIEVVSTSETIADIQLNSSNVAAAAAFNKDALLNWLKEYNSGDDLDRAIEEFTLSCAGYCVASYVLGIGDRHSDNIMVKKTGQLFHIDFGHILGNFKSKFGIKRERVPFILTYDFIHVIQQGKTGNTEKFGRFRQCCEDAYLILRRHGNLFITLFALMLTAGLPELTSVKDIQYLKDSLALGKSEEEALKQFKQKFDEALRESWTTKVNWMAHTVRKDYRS
Method: as §1

As to `CO[C@@H]1CCN(C(=O)c2cnc3ccc(-c4ccc5oc(N)nc5c4)cn23)C1` [US11547697, Compound 464], the IC50 in assay [1] and in assay [2] was above 10 µM throughout.

With `Nc1nc2cc(-c3ccc4ncc(-c5cccnc5)nc4c3)ccc2o1` [US11547697, Compound 76], the IC50 in assay [1] and in assay [2] was above 10 µM throughout.

For the compound `Nc1nc2cc(-c3ccc4ncc(C(=O)N5CCN(CCO)CC5)n4c3)ccc2o1` [US11547697, Compound 148], the 50% inhibitory concentration (IC50) in assay [1] and in assay [2] was above 10 µM in each case.

Regarding `Cc1cn(-c2cnc3ccc(-c4ccc5oc(N)nc5c4)cc3n2)cn1` [US11547697, Compound 177], the 50% inhibitory concentration (IC50) in assay [1] and in assay [2] was above 10 µM each time.

On to `CC(=O)N1CCN(C(=O)c2cnc3ccc(-c4ccc5oc(N)nc5c4)cn23)CC1` [US11547697, Compound 113], for which the 50% inhibitory concentration (IC50) in assay [1] and in assay [2] was above 10 µM in each case.

On to `Nc1nc2cc(-c3ccc4ncc(C(=O)N5CC[C@H](N6CCOCC6)C5)n4c3)ccc2o1` [US11547697, Compound 465], for which the IC50 in assay [1] and in assay [2] was above 10 µM in each case.

For `CC(=O)Nc1nc2ccc(-c3ccc4nccc(-c5ccncc5)c4c3)cc2s1` [US11547697, Compound 2], the 50% inhibitory concentration (IC50) in assay [1] and in assay [2] was above 10 µM throughout.

Turning to `Nc1nc2cc(-c3ccc4ncc(C(=O)N5CC(F)(F)C5)n4c3)ccc2o1` [US11547697, Compound 473], the IC50 in assay [1] and in assay [2] was above 10 µM throughout.

Turning to `Nc1nc2cc(-c3ccc4ncc(C(=O)N5CC5)n4c3)ccc2o1` [US11547697, Compound 340], the IC50 in assay [1] and in assay [2] was above 10 µM in each case.

For the compound `O=C(c1cnc2ccc(-c3cccc(NS(=O)(=O)c4ccccc4)c3)cn12)N1CCOCC1` [US11547697, Compound 453], the IC50 in assay [1] and in assay [2] was above 10 µM each time.

As to `NC(=O)[C@@H]1CCCN1C(=O)c1cnc2ccc(-c3ccc4oc(N)nc4c3)cn12` [US11547697, Compound 259], the half-maximal inhibitory concentration (IC50) in assay [1] and in assay [2] was above 10 µM in each case.

In the case of `Nc1nc2cc(-c3ccc4ncc(C(=O)N5CCC(F)(F)C5)n4c3)ccc2o1` [US11547697, Compound 471], the IC50 in assay [1] and in assay [2] was above 10 µM each time.

As for `CC1(C)CN(C(=O)c2cnc3ccc(-c4ccc5oc(N)nc5c4)cn23)CCO1` [US11547697, Compound 513], the concentration for half-maximal inhibition (IC50) in assay [1] and in assay [2] was above 10 µM in each case.

For `CC(C)n1cnc2ccc(-c3ccc4oc(N)nc4c3)cc2c1=O` [US11547697, Compound 206], the 50% inhibitory concentration (IC50) in assay [1] and in assay [2] was above 10 µM in each case.

Consider `Cc1cc(-c2ccc3oc(N)nc3c2)cn2c(C(=O)N3CCOCC3)cnc12` [US11547697, Compound 448], for which the half-maximal inhibitory concentration (IC50) in assay [1] and in assay [2] was above 10 µM in each case.

As to `Nc1nc2cc(-c3ccc4ncc(N5CCS(=O)(=O)CC5)nc4c3)ccc2o1` [US11547697, Compound 98], the half-maximal inhibitory concentration (IC50) in assay [1] and in assay [2] was above 10 µM in each case.

As to `NC(=O)[C@H]1CCCN1C(=O)c1cnc2ccc(-c3ccc4oc(N)nc4c3)cn12` [US11547697, Compound 260], the half-maximal inhibitory concentration (IC50) in assay [1] and in assay [2] was above 10 µM each time.

Consider `CNc1noc2cc(-c3ccc4ncc(C(=O)N5CCOCC5)n4c3)ccc12` [US11547697, Compound 486], for which the half-maximal inhibitory concentration (IC50) in assay [1] and in assay [2] was above 10 µM throughout.

For `Nc1nc2cc(-c3ccc4ncc(C(=O)N5CCC(O)CC5)n4c3)ccc2o1` [US11547697, Compound 162], the 50% inhibitory concentration (IC50) in assay [1] and in assay [2] was above 10 µM in each case.

`Nc1nc2cc(-c3ccc4ncc(N5CCCCC5)nc4c3)ccc2o1` [US11547697, Compound 175]: the IC50 in assay [1] and in assay [2] was above 10 µM throughout.

In the case of `Nc1nc2cc(-c3ccc4ncc(N5CCN(CC(F)(F)F)CC5)nc4c3)ccc2o1` [US11547697, Compound 395], the IC50 in assay [1] and in assay [2] was above 10 µM each time.
